According to US6365215B1, “Oral sensory perception-affecting compositions containing dimethyl sulfoxide, complexes thereof and salts thereof” (International Flavors & Fragrances Inc., priority 2000, dated 2002):

Legend:
[1] = Perceived cooling in screening base: silica toothpaste base with 0.4% saccharin (Table II); type: in vivo
Description: The following Table II sets forth the effect in a screening base, in this case: silica toothpaste base containing 0.4% saccharin of various “second compounds” in admixture with dimethyl sulfoxide, as follows: […]

[2] = Comparison of perceived cooling: second compound plus dimethyl sulfoxide vs. second compound alone (Table I); type: in vivo; settings: scale 0-10
Description: is admixed with such “second compound(s),” the resulting mixture as stated, supra, has a highly intensified oral sensory perception effect, for example, a “highly intensified cooling effect” or a “highly intensified hot, burning effect.” Such effects are highly desirable in the use of certain oral care products such as mouthwashes, toothpastes and the like as set forth, supra. Thus, the following Table I sets forth a comparison of a “control” which is a “second compound” taken alone vs. the mixture of dimethyl sulfoxide with the said “second compound”: […]

[3] = scaled 1-10, 2nd compound 30 ppm + DMSO 0.1 ppm
[4] = scaled 1-10, 2nd compound 30 ppm + DMSO 1 ppm
[5] = scaled 1-10, 2nd compound alone 30 ppm (line of DMSO 0.1 ppm)
[6] = scaled 1-10, 2nd compound alone 30 ppm (line of DMSO 1 ppm)
[7] = second compound 30 ppm + DMSO 0.1 ppm
[8] = second compound 30 ppm + DMSO 100 ppm
[9] = second compound alone 30 ppm (control for DMSO 0.1 ppm line)
[10] = second compound alone 30 ppm (control for DMSO 100 ppm line)

## CC1CCC(C(C)C)C(O)C1 (centres unmarked) [Menthol, menthol]
[1]; scaled 1-10, 2nd compound 0.50% + DMSO 1 ppm
  Observed Effect Scaled at 1-10 vs. 2nd Compound Alone, perceived cooling: with DMSO: 8.2
[1]; scaled 1-10, 2nd compound alone 0.50% (line of DMSO 1 ppm)
  Observed Effect Scaled at 1-10 vs. 2nd Compound Alone, perceived cooling: 2nd compound alone: 1.6
[2]; second compound 5 ppm + DMSO 0.1 ppm
  Effect of Mixture vs. Control, perceived cooling: mixture: 8
[2]; second compound 10 ppm + DMSO 1 ppm
  Effect of Mixture vs. Control, perceived cooling: mixture: 9
[2]; second compound 30 ppm + DMSO 5 ppm
  Effect of Mixture vs. Control, perceived cooling: mixture: 9.5
[2]; second compound 100 ppm + DMSO 10 ppm
  Effect of Mixture vs. Control, perceived cooling: mixture: 8.7
[2]; second compound alone 5 ppm (control for DMSO 0.1 ppm line)
  Effect of Mixture vs. Control, perceived cooling: control: 1.5
[2]; second compound alone 10 ppm (control for DMSO 1 ppm line)
  Effect of Mixture vs. Control, perceived cooling: control: 1.3
[2]; second compound alone 30 ppm (control for DMSO 5 ppm line)
  Effect of Mixture vs. Control, perceived cooling: control: 1.1
[2]; second compound alone 100 ppm (control for DMSO 10 ppm line)
  Effect of Mixture vs. Control, perceived cooling: control: 2

## CCNC(=O)C1CC(C)CCC1C(C)C (centres unmarked) [WS 3 ®]
[1]; [3]
  Observed Effect Scaled at 1-10 vs. 2nd Compound Alone, perceived cooling: with DMSO: 9.1
[1]; [4]
  Observed Effect Scaled at 1-10 vs. 2nd Compound Alone, perceived cooling: with DMSO: 9.0
[1]; [5]
  Observed Effect Scaled at 1-10 vs. 2nd Compound Alone, perceived cooling: 2nd compound alone: 1.7
[1]; [6]
  Observed Effect Scaled at 1-10 vs. 2nd Compound Alone, perceived cooling: 2nd compound alone: 1.6
[2]; [7]
  Effect of Mixture vs. Control, perceived cooling: mixture: 9.3
[2]; [8]
  Effect of Mixture vs. Control, perceived cooling: mixture: 9.0
[2]; [9]
  Effect of Mixture vs. Control, perceived cooling: control: 1.5
[2]; [10]
  Effect of Mixture vs. Control, perceived cooling: control: 1.6

## CCC(C)C(C(=O)NC(C)C)C(C)C (centres unmarked) [WS 23 ®]
[1]; [3]
  Observed Effect Scaled at 1-10 vs. 2nd Compound Alone, perceived cooling: with DMSO: 9.8
[1]; [4]
  Observed Effect Scaled at 1-10 vs. 2nd Compound Alone, perceived cooling: with DMSO: 9.9
[1]; [5]
  Observed Effect Scaled at 1-10 vs. 2nd Compound Alone, perceived cooling: 2nd compound alone: 2.4
[1]; [6]
  Observed Effect Scaled at 1-10 vs. 2nd Compound Alone, perceived cooling: 2nd compound alone: 2.6
[2]; [7]
  Effect of Mixture vs. Control, perceived cooling: mixture: 9.6
[2]; [8]
  Effect of Mixture vs. Control, perceived cooling: mixture: 9.2
[2]; [9]
  Effect of Mixture vs. Control, perceived cooling: control: 2.4
[2]; [10]
  Effect of Mixture vs. Control, perceived cooling: control: 2.2

## CC1CCC(C(C)C)C(OC(=O)CCC(=O)O)C1 (centres unmarked) [Monomenthyl succinate, menthyl succinate]
[1]; scaled 1-10, 2nd compound 100 ppm + DMSO 0.1 ppm
  Observed Effect Scaled at 1-10 vs. 2nd Compound Alone, perceived cooling: with DMSO: 9.0
[1]; scaled 1-10, 2nd compound 100 ppm + DMSO 1 ppm
  Observed Effect Scaled at 1-10 vs. 2nd Compound Alone, perceived cooling: with DMSO: 9.2
[1]; scaled 1-10, 2nd compound alone 100 ppm (line of DMSO 0.1 ppm)
  Observed Effect Scaled at 1-10 vs. 2nd Compound Alone, perceived cooling: 2nd compound alone: 3.5
[1]; scaled 1-10, 2nd compound alone 100 ppm (line of DMSO 1 ppm)
  Observed Effect Scaled at 1-10 vs. 2nd Compound Alone, perceived cooling: 2nd compound alone: 3.7
[2]; second compound 100 ppm + DMSO 0.1 ppm
  Effect of Mixture vs. Control, perceived cooling: mixture: 9.1
[2]; second compound 100 ppm + DMSO 100 ppm
  Effect of Mixture vs. Control, perceived cooling: mixture: 8.7
[2]; second compound alone 100 ppm (control for DMSO 0.1 ppm line)
  Effect of Mixture vs. Control, perceived cooling: control: 3.8
[2]; second compound alone 100 ppm (control for DMSO 100 ppm line)
  Effect of Mixture vs. Control, perceived cooling: control: 2.5

## CC1CCC(C(C)C)C(OC(=O)C(C)O)C1 (centres unmarked) [Menthyl lactate]
[2]; [7]
  Effect of Mixture vs. Control, perceived cooling: mixture: 8.4
[2]; [8]
  Effect of Mixture vs. Control, perceived cooling: mixture: 8.2
[2]; [9]
  Effect of Mixture vs. Control, perceived cooling: control: 1.7
[2]; [10]
  Effect of Mixture vs. Control, perceived cooling: control: 2.1
